Experiments:
Type in all cases: cell-based, human
[1] = system: living cells in which a DHC1-mAID-Clover fusion protein is expressed; assay: Relative number of cells after treatment of cells expressing DHC1-mAID-Clover; conditions: 500 μM auxin with 2 μg/mL doxycycline; 24, 48 and 72 hours relative to zero hours
Experimental: FIG. 11 is a graph showing the relative number of cells at 24, 48, and 72 hours after treatment with respect to the number of cells at zero hours after treatment, using living cells in which a DHC1-mAID-Clover fusion protein is expressed, untreated and treated with 2 μg/mL of doxycycline alone, or 2 μg/mL of doxycycline and 500 μM of auxin.
The relative number of cells at 24, 48, and 72 hours after treatment was calculated with respect to the number of cells at zero hours after treatment, using living cells in which a DHC1-mAID-Clover fusion protein is expressed, untreated and treated with 2 μg/mL of doxycycline alone, or 2 μg/mL of doxycycline and 500 μM of auxin (FIG. 11).

[2] = system: DHC1 protein having mAID-Clover added; assay: Western blotting with DHC1 antibody after doxycycline and auxin treatment; conditions: 500 μM auxin with 2 μg/mL doxycycline for 2, 4, 6, 8, 10 and 24 hours
Experimental: (§1) In this experiment, wild-type HCT116 cells and HCT 116 cells modified to constitutively express OsTIR1 necessary for an auxin-inducible degron (AID) method were used as materials. Proliferating cells were prepared in a 6-well plate. 0.8 μg of pX330 for cleaving the target portion of DHC1 gene and 0.6 μg of each of the constructed donor vectors having neomycin and hygromycin resistance markers were mixed and transfected into the cells using Fugene HD (available from Promega Corporation). For transfection, DNA and Fugene HD were mixed according to the instruction manual, allowed to stand for 15 minutes and then added dropwise to the medium.
A protein was extracted from clones in which insertions into both alleles were confirmed by genomic PCR, and subjected to Western blotting using a DHC1 antibody and an OsTIR antibody (right in FIG. 10). In addition, a protein was similarly extracted from the cells treated with 2 μg/mL of doxycycline and 500 μM of auxin (3-indole acetic acid) for 2, 4, 6, 8, 10, and 24 hours, and used for Western blotting.

[3] = system: living cells in which a DHC1-mAID-Clover fusion protein is expressed; assay: Percentage of mitotic cells and fluorescence microscopy (tubulin antibody, SiR-Hoechst) of cells expressing DHC1-mAID-Clover; conditions: 500 μM auxin with 1 μg/mL tetracycline
Experimental: FIG. 12 is a graph showing the percentage of mitotic cells at 18 and 42 hours after treatment, using living cells in which a DHC1-mAID-Clover fusion protein is expressed, untreated and treated with 1 μg/mL of tetracycline alone, or 1 μg/mL of tetracycline and 500 μM of auxin.
The percentage of mitotic cells at 18 and 42 hours after treatment was calculated, using living cells in which a DHC1-mAID-Clover fusion protein is expressed, untreated and treated with 1 μg/mL of tetracycline alone, or 1 μg/mL of tetracycline and 500 μM of auxin (FIG. 12).
In addition, fluorescence microscope observation was carried out after immunostaining with a tubulin antibody and nuclear staining with SiR-Hoechst at 18 hours after treatment for living cells in which a DHC1-mAID-Clover fusion protein is expressed, untreated and treated with 1 μg/mL of tetracycline and 500 μM of auxin (FIG. 13).

[4] = system: RAD21-mAID-Clover fusion protein; assay: Western blotting of RAD21-mAID-Clover after auxin treatment (AID method); conditions: 500 μM auxin for 20 hours, HCT116 with or without OsTIR1
Experimental: as §1, with “RAD21” for “DHC1”
A protein was extracted from clones in which insertions into both alleles were confirmed by genomic PCR, and subjected to Western blotting using a RAD21 antibody and a mAID antibody (right in FIG. 6). […] The RAD21 to which mAID-Clover was not added was detected at 105 kDa. On the other hand, the RAD21-mAID-Clover fusion protein was detected at 145 kDa. As shown in the right side of FIG. 6, in the case where a RAD21 antibody was used, a 105 kDa band was detected in the original HCT116 cells (WT), whereas in the case where mAID-Clover was added to both alleles, a 145 kDa band was detected. In addition, in the case where a mAID antibody was used, only the RAD21 protein having mAID-Clover added thereto was detected.

[5] = system: RAD21-mAID-Clover fusion protein; assay: Deconvolution fluorescence microscopy of living cells expressing RAD21-mAID-Clover after auxin treatment; conditions: 500 μM auxin, observed after 90 minutes, HCT116 with or without OsTIR1
Experimental: as §1, with “RAD21” for “DHC1”
In the cells before treatment with auxin (3-indole acetic acid), it was observed that RAD21-mAID-Clover was localized in the cell nucleus, regardless of expression of OsTIR1.

For `O=C(O)Cc1c[nH]c2ccccc12` [auxin, 3-indole acetic acid], the “Relative number of cells (cell proliferation)” value [1] was “cell proliferation was suppressed after 48 hours from the treatment”, the “DHC1-mAID-Clover protein level (DHC1 antibody)” value [2] was “disappeared with time” and the “Percentage of mitotic cells” value ([3]; 18 and 42 hours after treatment) was “accumulation of mitotic cells”. For the same compound, the “Chromosomal structure (fluorescence microscopy)” value ([3]; 18 hours after treatment) was “a chromosomal structural abnormality occurred”, the “Degradation of RAD21-mAID-Clover (Western blotting)” value [4] was “disappearance of RAD21-mAID-Clover occurred in OsTIR1-expressing cells” and the “Disappearance of RAD21-mAID-Clover from the nucleus (fluorescence microscope)” value [5] was “RAD21-mAID-Clover disappeared only in cells expressing OsTIR1”.
